Assay results from patent publication US11840686B2, “Modulation of prekallikrein (PKK) expression” (Ionis Pharmaceuticals, Inc., priority 2013, dated 2023).
Strand notation (5' to 3'): a small letter for the sugar, then the base; units joined by * are phosphorothioate-linked, units joined directly phosphodiester-linked; [ ] holds rarer units or linkages, { } end groups; capitals alone tell only the bases. e = 2'-O-(2-methoxyethyl) (MOE); [5mC] = 5-methylcytosine; d = 2'-deoxy (DNA)

Tested on: human PKK mRNA
Test: Antisense inhibition of human PKK mRNA in HepaRG cells, 5,000 nM (Example 2)
Type: cell-based
Procedure, shortened: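 Chimeric MOE gapmers with full phosphorothioate backbones were tested once at 5,000 nM in electroporated HepaRG cells. After about 24 hours, quantitative PCR measured PKK mRNA relative to untreated control cells.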

[1] = Table 9 experiment, HepaRG cells, 20,000 cells per well, electroporation with 5,000 nM antisense oligonucleotide, approx. 24 hours, PKK mRNA by RT-PCR (RTS3454), relative to untreated control cells
[2] = Table 10 experiment, HepaRG cells, 20,000 cells per well, electroporation with 5,000 nM antisense oligonucleotide, approx. 24 hours, PKK mRNA by RT-PCR (RTS3454), relative to untreated control cells
[3] = HepaRG cells, electroporation, 5,000 nM antisense oligonucleotide, approx. 24 hours, primer probe set RTS3454, relative to untreated control cells, Table 12
[4] = HepaRG cells, electroporation, 5,000 nM antisense oligonucleotide, approx. 24 hours, primer probe set RTS3454, relative to untreated control cells, Table 11
[5] = HepaRG cells, electroporation with 5,000 nM antisense oligonucleotide, approximately 24 hours, PKK mRNA by RT-PCR (RTS3454), relative to untreated control cells, Table 5 experiment
[6] = Table 13, human PKK mRNA in HepaRG cells, 5-10-5 gapmers
[7] = HepaRG cells, 5,000 nM antisense oligonucleotide, 5-10-5 gapmers, Table 16
[8] = HepaRG cells, 5,000 nM antisense oligonucleotide, 5-10-5 gapmers, Table 17
[9] = human PKK mRNA in HepaRG cells, 5-10-5 gapmers, Table 14
[10] = Table 8, HepaRG cells, electroporation with 5,000 nM antisense oligonucleotide, approx. 24 hours, PKK mRNA by RT-PCR (RTS3454), relative to untreated control cells
[11] = human PKK mRNA, HepaRG cells, 5,000 nM antisense oligonucleotide, Table 18
[12] = Table 7, HepaRG cells, electroporation with 5,000 nM antisense oligonucleotide, approx. 24 hours, PKK mRNA by RT-PCR (RTS3454), relative to untreated control cells
[13] = human PKK mRNA, HepaRG cells, 5-10-5 motif oligonucleotides targeting SEQ ID NO: 1 and 10

## 547487 (antisense eT*eG*eT*eG*eT*dT*dT*dG*d[5mC]*dA*dA*dA*d[5mC]*dT*dA*eA*eG*eG*eG*eA) [compound 547487]
[1]
  % inhibition: 72%
[2]
  % inhibition: 61%

## 546508 (eG*e[5mC]*eA*eG*e[5mC]*dA*dA*dG*dT*dG*d[5mC]*dT*d[5mC]*d[5mC]*d[5mC]*e[5mC]*eA*eT*eG*e[5mC]; antisense) [compound 546508]
[3]
  % inhibition: 43%

## 546357 (antisense eG*e[5mC]*eT*eT*eT*dT*d[5mC]*d[5mC]*dA*dT*d[5mC]*dA*d[5mC]*dT*dG*e[5mC]*eT*e[5mC]*eT*eG) [compound 546357]
[4]
  % inhibition: 79%

## 547270 (eA*eA*eA*eA*eT*dG*dA*dA*d[5mC]*dG*dG*dT*d[5mC]*dT*dT*e[5mC]*eA*eA*eG*e[5mC]; antisense) [compound 547270]
[5]
  % inhibition: 68%

## 547567 (eT*e[5mC]*e[5mC]*eA*e[5mC]*dT*d[5mC]*d[5mC]*dT*dA*dA*dG*dA*dA*dG*eT*eA*eT*eG*eG; antisense) [compound 547567]
[6]
  % inhibition: 60%

## 547678 (antisense eT*eA*e[5mC]*e[5mC]*eT*dA*dT*dA*dT*d[5mC]*dA*d[5mC]*dT*dG*dT*eA*eA*e[5mC]*eT*eA) [compound 547678]
[7]
  % inhibition: 21%

## 547739 (eA*eT*eT*eG*eG*dT*dG*dG*dT*dG*dG*dG*dA*dT*dT*eG*eG*eT*eG*e[5mC]; antisense) [compound 547739]
[8]
  % inhibition: 12%

## 547727 (eT*eG*eG*e[5mC]*eA*dG*dG*dA*dT*dT*dG*dG*dT*dG*dG*eT*eG*eG*eA*eA; antisense) [compound 547727]
[8]
  % inhibition: 0%

## 546861 (eT*eA*eA*e[5mC]*eA*dA*dT*dA*dT*d[5mC]*dA*d[5mC]*dT*dG*dT*e[5mC]*e[5mC]*eT*eA*eT; antisense) [compound 546861]
[9]
  % inhibition: 68%

## 546369 (antisense e[5mC]*eT*e[5mC]*eA*eG*dG*dT*dT*dG*dT*dA*dA*dA*dA*dA*eT*eT*eG*e[5mC]*e[5mC]) [compound 546369]
[4]
  % inhibition: 51%

## 546295 (antisense e[5mC]*e[5mC]*e[5mC]*eA*e[5mC]*dT*dG*dG*dT*dG*dT*d[5mC]*d[5mC]*dT*dA*eT*eG*eA*eG*eT) [compound 546295]
[10]
  % inhibition: 67%

## 546994 (eG*eT*eT*e[5mC]*eA*dT*dG*dT*dG*dG*d[5mC]*dA*dA*d[5mC]*d[5mC]*eT*eG*eT*eG*eA; antisense) [compound 546994]
[7]
  % inhibition: 58%

## 547566 (eA*eA*eG*eA*eG*dT*dT*dG*dG*dG*dA*dT*dG*d[5mC]*dG*eA*e[5mC]*eT*e[5mC]*eT; antisense) [compound 547566]
[6]
  % inhibition: 76%

## 546695 (eG*eG*eG*eA*e[5mC]*dA*dA*dT*d[5mC]*dT*d[5mC]*d[5mC]*dA*d[5mC]*d[5mC]*e[5mC]*e[5mC]*e[5mC]*eG*eA; antisense) [compound 546695]
[3]
  % inhibition: 36%

## 548731 (DNA e[5mC]*eT*eG*eT*dA*d[5mC]*dT*dA*dG*dT*dT*dT*d[5mC]*d[5mC]*eT*eA*eT; antisense) [compound 548731]
[11]
  % inhibition: 49%

## 546395 (eT*eT*e[5mC]*eA*e[5mC]*dA*dA*d[5mC]*dA*d[5mC]*dA*d[5mC]*dA*dG*dT*e[5mC]*eA*eT*eG*eG; antisense) [compound 546395]
[3]
  % inhibition: 72%

## 547327 (antisense eT*eT*eG*eA*eT*dG*dA*d[5mC]*d[5mC]*dA*d[5mC]*dA*dT*dT*dG*e[5mC]*eT*eT*e[5mC]*eA) [compound 547327]
HepaRG cells, electroporation with 5,000 nM antisense oligonucleotide, approximately 24 hours, PKK mRNA by RT-PCR (RTS3454), relative to untreated control cells, Table 6 experiment
  % inhibition: 45%

## 546228 (antisense eG*eT*eG*eA*e[5mC]*dT*d[5mC]*dG*dA*dT*dT*dT*dT*d[5mC]*d[5mC]*eA*eT*eA*e[5mC]*eA) [compound 546228]
[12]
  % inhibition: 60%

## 547619 (antisense eT*e[5mC]*e[5mC]*eT*eA*dT*dA*dA*d[5mC]*dA*dG*dT*dA*dT*d[5mC]*eA*e[5mC]*eT*eG*eT) [compound 547619]
[9]
  % inhibition: 70%

## 546842 (eT*e[5mC]*eA*e[5mC]*eT*dG*dT*d[5mC]*d[5mC]*dT*dA*dT*dA*dA*d[5mC]*eT*e[5mC]*eT*eA*eA; antisense) [compound 546842]
[6]
  % inhibition: 54%

## 547710 (antisense eT*eG*e[5mC]*eG*eG*dT*dT*dA*dT*dA*dT*dG*dG*dG*d[5mC]*eT*eG*eA*eA*eG) [compound 547710]
[7]
  % inhibition: 85%

## 548748 (antisense eG*eT*eA*e[5mC]*dT*dA*dG*dT*dT*dT*d[5mC]*d[5mC]*dT*dA*eT*eA*eA*e[5mC]) [compound 548748]
[11]
  % inhibition: 0%

## 547301 (antisense eT*e[5mC]*eA*eT*eT*dG*dA*dT*dT*dG*dA*dA*d[5mC]*dT*dT*eG*e[5mC]*eT*eG*eG) [compound 547301]
[5]
  % inhibition: 80%

## 547630 (antisense eA*e[5mC]*eT*eG*eT*d[5mC]*d[5mC]*dT*dA*dT*dA*dT*d[5mC]*dA*d[5mC]*eT*e[5mC]*eT*eA*e[5mC]) [compound 547630]
[13]
  % inhibition: 76%

## 547682 (antisense e[5mC]*eA*eA*eT*eA*dT*d[5mC]*dA*d[5mC]*dT*dG*dT*dA*d[5mC]*d[5mC]*eT*eA*eT*eA*eT) [compound 547682]
[7]
  % inhibition: 20%

## 548759 (antisense eA*eA*e[5mC]*eA*dG*dT*dA*dT*d[5mC]*dA*d[5mC]*dT*dG*eT*eA*e[5mC]*eT) [compound 548759]
[11]
  % inhibition: 68%

## 546884 (eA*e[5mC]*eT*eA*eG*dT*dT*dT*d[5mC]*d[5mC]*dT*dA*dT*dA*dA*e[5mC]*eA*eG*eT*eA; antisense) [compound 546884]
[9]
  % inhibition: 6%

## 546905 (eT*eA*e[5mC]*e[5mC]*eT*dA*dT*dA*dA*d[5mC]*dA*dG*dT*dA*dT*e[5mC]*eA*e[5mC]*eT*eG; antisense) [compound 546905]
[13]
  % inhibition: 65%

## 546293 (antisense eG*e[5mC]*e[5mC]*eT*e[5mC]*dT*dG*dA*dG*d[5mC]*dT*dG*dT*d[5mC]*dA*eG*e[5mC]*eT*eT*e[5mC]) [compound 546293]
[10]
  % inhibition: 64%

## 547726 (eG*e[5mC]*eA*eG*eG*dA*dT*dT*dG*dG*dT*dG*dG*dT*dG*eG*eA*eA*eT*eT; antisense) [compound 547726]
[8]
  % inhibition: 0%

## 546799 (eA*eT*eG*eA*eA*dG*dG*dG*d[5mC]*dG*dA*dG*dG*d[5mC]*dG*e[5mC]*eA*eG*eT*eG; antisense) [compound 546799]
[6]
  % inhibition: 5%

## 547281 (antisense eT*eT*eG*e[5mC]*eT*dT*dG*dA*dA*dT*dA*dA*dA*dA*dT*e[5mC]*eA*eT*eT*e[5mC]) [compound 547281]
[5]
  % inhibition: 41%

## 546241 (e[5mC]*eA*eG*eG*eT*dA*dA*dA*dG*dT*dT*d[5mC]*dT*dT*dT*eT*eG*e[5mC]*eA*eG; antisense) [compound 546241]
[12]
  % inhibition: 69%

## 546284 (antisense e[5mC]*eA*e[5mC]*eA*eA*dT*d[5mC]*dT*d[5mC]*dA*dA*dA*dG*dA*dG*eT*eA*eA*e[5mC]*e[5mC]) [compound 546284]
[10]
  % inhibition: 89%

## 547490 (antisense eG*eT*eA*eG*eA*d[5mC]*dA*d[5mC]*d[5mC]*dA*dG*dG*dT*dT*dG*e[5mC]*eT*e[5mC]*e[5mC]*e[5mC]) [compound 547490]
[4]
  % inhibition: 55%

## 547450 (antisense e[5mC]*eT*e[5mC]*eT*eT*dT*dT*dA*dT*dT*dT*dG*dT*dG*dA*eG*eA*eA*eA*eG) [compound 547450]
[1]
  % inhibition: 71%
[2]
  % inhibition: 67%

## 547733 (eT*eA*eG*eG*eA*dT*dT*dG*dG*dT*dG*dG*dT*dG*dG*eG*eA*eT*eT*eG; antisense) [compound 547733]
[8]
  % inhibition: 0%

## 547643 (eA*eT*e[5mC]*eA*e[5mC]*dT*dG*dT*d[5mC]*d[5mC]*dT*dA*dT*dA*dA*e[5mC]*eT*eA*eT*eA; antisense) [compound 547643]
[13]
  % inhibition: 72%

## 547289 (antisense eT*eT*e[5mC]*eA*eT*dA*dG*dA*dG*dT*dT*dG*dA*dG*dT*e[5mC]*eA*eG*eA*e[5mC]) [compound 547289]
[5]
  % inhibition: 74%

## 547513 (antisense eT*eG*e[5mC]*eA*eG*dA*dT*dG*dA*dG*dG*dA*d[5mC]*d[5mC]*d[5mC]*e[5mC]*e[5mC]*e[5mC]*eA*eG) [compound 547513]
[4]
  % inhibition: 72%
